Results: US8383623B2, “Phthalazin-(2H)-one inhibitors of kinases” (Abbott Laboratories, priority 2010, dated 2013)

Biological target: T1, Cdc7 (BEV coexpressed huCDC7/DBF4) (Homo sapiens, UniProt O00311)
T1 construct: made in house; host or cells: BEV (baculovirus expression vector)
Assay: Cdc7 enzyme inhibition assay ([33P]-ATP, biotinylated peptide substrate, FlashPlate)
Assay type: biochemical
Conditions: Ki generated from IC50 assuming ATP-competitive inhibition, apparent ATP Km 0.7 μM; 1 μM ATP, 1 hr
Experimental: This example describes the assays that may be used to identify compounds having kinase activity.
Cdc7 (BEV coexpressed huCDC7/DBF4) is prepared internally. Cdc7 assays are conducted as follows with final concentrations as listed. In 384-well v-bottom polypropylene plates, 6 μL compound (2% DMSO), is mixed with 6 μL of Cdc7 (2 ug/mL), and Jerini peptide substrate A-A11 (biotin-C6linker-TPSDSLIYDDGLS) (2 μM), followed by immediate initiation with 6 μL λ-[^33P]-ATP (1 μM, 20 mCi/μmol) using a reaction buffer comprising 25 mM HEPES, pH 7.5, 1 mM DTT, 10 mM MgCl2, 100 μM Na3VO4, 0.075 mg/ml Triton X-100. Reactions are quenched after 1 hr by the addition of 90 μL stop buffer (50 mM EDTA, 2M NaCl). 85 μL of the stopped reactions are transferred to 384-well streptavidin-coated plates (FlashPlate Plus, Perkin Elmer), incubated 30 minutes at room temperature and washed 3 times with 0.05% Tween-20/PBS using an ELX-405 automated plate washer (BioTek), and counted on a TopCount Scintillation Plate Reader (Packard). IC50 values are determined via non-linear regression fitting of enzyme inhibition data and corresponding Ki values are generated assuming ATP-competitive (equilibrium) inhibition and using the experimentally determined apparent ATP Km of 0.7 μM (as determined using the above assay condition, but varying ATP).
Table 1 depicts enzyme inhibition data (Ki) for exemplary compounds. In Table 1, “A” represents a K, of less than 10 nM, “B” represents a K, of between 10 nM and 100 nM, and “C” represents a Ki of greater than 100 nM.

T1 sequence (O00311 whole entry): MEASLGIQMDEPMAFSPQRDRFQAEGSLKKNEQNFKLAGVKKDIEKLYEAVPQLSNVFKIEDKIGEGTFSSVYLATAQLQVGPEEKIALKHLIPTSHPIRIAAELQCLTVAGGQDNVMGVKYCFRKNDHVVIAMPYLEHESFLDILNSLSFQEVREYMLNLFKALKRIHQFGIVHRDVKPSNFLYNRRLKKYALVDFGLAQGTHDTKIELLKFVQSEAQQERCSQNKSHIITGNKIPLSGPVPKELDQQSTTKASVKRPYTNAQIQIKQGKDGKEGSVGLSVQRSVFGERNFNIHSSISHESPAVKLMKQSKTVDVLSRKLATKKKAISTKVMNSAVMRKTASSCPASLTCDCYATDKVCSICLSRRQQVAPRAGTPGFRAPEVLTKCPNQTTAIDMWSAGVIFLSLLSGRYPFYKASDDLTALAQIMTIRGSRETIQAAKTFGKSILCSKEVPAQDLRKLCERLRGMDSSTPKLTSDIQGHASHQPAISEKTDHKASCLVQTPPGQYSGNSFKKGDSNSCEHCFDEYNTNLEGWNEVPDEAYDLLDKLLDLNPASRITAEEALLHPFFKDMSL
T1 sequence (Q9UBU7 whole entry partner): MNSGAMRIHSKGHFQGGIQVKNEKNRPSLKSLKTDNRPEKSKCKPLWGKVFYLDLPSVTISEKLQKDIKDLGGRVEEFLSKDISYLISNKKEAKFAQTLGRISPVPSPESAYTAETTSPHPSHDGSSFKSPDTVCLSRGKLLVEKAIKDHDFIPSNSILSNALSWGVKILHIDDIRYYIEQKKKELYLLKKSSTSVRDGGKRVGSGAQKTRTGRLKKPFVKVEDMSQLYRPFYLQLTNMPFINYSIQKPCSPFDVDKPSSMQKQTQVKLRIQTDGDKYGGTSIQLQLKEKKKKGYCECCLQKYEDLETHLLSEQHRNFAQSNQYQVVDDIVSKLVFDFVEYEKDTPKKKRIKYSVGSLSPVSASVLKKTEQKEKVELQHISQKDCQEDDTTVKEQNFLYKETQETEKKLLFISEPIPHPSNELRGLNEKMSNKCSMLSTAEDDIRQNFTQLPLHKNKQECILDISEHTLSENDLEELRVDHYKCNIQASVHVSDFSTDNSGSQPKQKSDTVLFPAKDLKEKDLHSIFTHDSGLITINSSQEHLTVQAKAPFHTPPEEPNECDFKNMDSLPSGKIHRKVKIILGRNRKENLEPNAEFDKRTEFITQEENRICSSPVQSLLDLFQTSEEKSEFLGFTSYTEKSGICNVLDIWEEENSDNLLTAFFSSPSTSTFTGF

Ki [nM] | Compound
10 to 100 | O=c1[nH]nc(Cc2ccccc2)c2cc(-c3cn[nH]c3)ccc12 [Example 3, 4-benzyl-6-(1H-pyrazol-4-yl)phthalazin-1(2H)-one]
< 10 | O=c1[nH]nc(Cc2ccccc2)c2cc(-c3c[nH]c4ncccc34)ccc12 [Example 1, 4-benzyl-6-(1H-pyrrolo[2,3-b]pyridin-3-yl)phthalazin-1(2H)-one]
> 100 | O=c1[nH]nc(Cc2ccccc2)c2cc(-c3ccncc3)ccc12 [Example 2, 4-benzyl-6-(pyridin-4-yl)phthalazin-1(2H)-one]
10 to 100 | Cn1ccc(Cc2n[nH]c(=O)c3ccc(-c4c[nH]c5ncccc45)cc23)n1 [Example 13, 4-[(1-methyl-1H-pyrazol-3-yl)methyl]-6-(1H-pyrrolo [2,3-b]pyridin-3-yl)phthalazin-1(2H)-one]

Second part, the compound before the results:

Compound | Ki [nM]
O=c1[nH]nc(Cc2cccnc2)c2cc(-c3c[nH]c4ncccc34)ccc12 [Example 8, 4-(pyridin-3-ylmethyl)-6-(1H-pyrrolo[2,3-b]pyridin-3-yl)phthalazin-1(2H)-one] | < 10
CN(C)c1ccc(Cc2n[nH]c(=O)c3ccc(-c4c[nH]c5ncccc45)cc23)cc1 [Example 11, 4-[4-(dimethylamino)benzyl]-6-(1H-pyrrolo[2,3-b]pyridin-3-yl)phthalazin-1(2H)-one] | 10 to 100
CC(=O)Nc1ccc(Cc2n[nH]c(=O)c3ccc(-c4c[nH]c5ncccc45)cc23)cc1 [Example 12, N-(4-{[4-oxo-7-(1H-pyrrolo[2,3-b]pyridin-3-yl)-3,4-dihydrophthalazin-1-yl]methyl}phenyl)acetamide] | < 10
4-(2,5-dichlorobenzyl)-6-(1H-pyrrolo[2,3-b]pyridin-3-yl)phthalazin-1(2H)-one [Example 6] | > 100
O=c1[nH]nc(CC2CCCCN2)c2cc(-c3c[nH]c4ncccc34)ccc12 (stereo not shown) [Example 10, 4-(piperidin-2-ylmethyl)-6-(1H-pyrrolo[2,3-b]pyridin-3-yl)phthalazin-1(2H)-one] | > 100
O=c1[nH]nc(CC2CCNCC2)c2cc(-c3c[nH]c4ncccc34)ccc12 [Example 9, 4-(piperidin-4-ylmethyl)-6-(1H-pyrrolo[2,3-b]pyridin-3-yl)phthalazin-1(2H)-one] | 10 to 100
O=c1[nH]nc(CC2CCCNC2)c2cc(-c3c[nH]c4ncccc34)ccc12 (stereo not shown) [Example 7, 4-(piperidin-3-ylmethyl)-6-(1H-pyrrolo[2,3-b]pyridin-3-yl)phthalazin-1(2H)-one] | > 100
O=c1[nH]nc(Cc2ccncc2)c2cc(-c3c[nH]c4ncccc34)ccc12 [Example 5, 4-(pyridin-4-ylmethyl)-6-(1H-pyrrolo[2,3-b]pyridin-3-yl)phthalazin-1(2H)-one] | < 10
O=c1[nH]nc(Cc2ccccc2)c2cc(-c3cccnc3)ccc12 [Example 4, 4-benzyl-6-(pyridin-3-yl)phthalazin-1(2H)-one] | > 100
